According to the NIST ThermoML archive (doi:10.1016/j.jct.2015.05.013):

Assay: cn = amount concentration of the nth substance listed, in mol/dm3
Settings: 298.15 K, 101.3 kPa, Liquid, Taylor dispersion method

## COC(=O)[C@@H](N)Cc1cnc[nH]1.Cl.Cl [methyl L-histidinate dihydrochloride] + O
c1 = 0.001
  binary diffusion coefficient: 1.05e-09 m2/s
c1 = 0.005
  binary diffusion coefficient: 1.01e-09 m2/s
c1 = 0.01
  binary diffusion coefficient: 9.82e-10 m2/s
c1 = 0.02
  binary diffusion coefficient: 9.6e-10 m2/s
c1 = 0.05
  binary diffusion coefficient: 9.21e-10 m2/s
c1 = 0.1
  binary diffusion coefficient: 8.61e-10 m2/s
